Source: patent US4416888A, “3-(2-(4-Piperidyl)-1-alkyl-ethyl)-indoles and their use as medicaments” (Pharmindustrie, priority 1981, dated 1983)
Read-outs that look alike come from different tables or passages of the source.

What was measured:
[1] = system: serotonin uptake by human blood platelets; experiment: Inhibition of serotonin uptake in human blood platelets; assay type: cell-based; settings: Platelet, read-out: Inhibition of serotonin uptake I50
Description: It is known that serotonin uptake by the blood platelets is a good model for the uptake of this amine by the neurons (cf. J. Tuomisto, J. Pharm., Pharmac., 26, 92 (1974). When applied to the study of medicaments, any method involving the use of blood platelets is of great interest because it allows the use of human cells, so that its estimation character is good.
"Platelets Function and Thrombosis, a Review of Methods" p. 335 (Plenum Press, London, 1972).
1. Inhibition of Serotonin Uptake
The results are expressed by inhibitory dose 50% or I50 which represents the dose of the product in micromoles per liter which reduce the rate of serotonin uptake by 50%.

[2] = system: serotonin release, human blood platelets; experiment: Serotonin release from human blood platelets; assay type: cell-based; settings: for activation at 50 µM: Platelet, product concentration 5 × 10^-5 moles per liter, increase relative to controls, human blood platelets, read-out: Percent of increased serotonin release
Experimental: "Platelets Function and Thrombosis, a Review of Methods" p.
The action of the products on serotonin release is tested at a concentration of 5×10^-5 moles per liter.

[3] = system: male mice CD1 (Charles RIVER); experiment: Acute toxicity in male mice CD1, oral administration; assay type: in vivo; settings: male CD1 mouse
Experimental: The acute toxicity of the products has been established in male mice CD1 (Charles RIVER) by oral administration. The compounds according to the invention are relatively not very toxic substances. For example, the product of Example 1 is non-toxic in the mouse if administered at a dose of 100 mg/kg.

| SMILES | IC50 ([1]; Homo sapiens) | activation at 50 µM [2] | Serotonin release (in words) ([2]; compared with p-chloroamphetamine) | IC50 ([1]; human blood platelets, dose reducing the rate of serotonin uptake by 50%) | Acute toxicity at 100 mg/kg [3] |
| --- | --- | --- | --- | --- | --- |
| CN(C)CCCN1c2ccccc2CCc2ccccc21 [Imipramine] | 400 nM | 12% | – | – | – |
| CC(N)Cc1ccc(Cl)cc1 (stereo not shown) [p-chloroamphetamine] | 12000 nM | 51% | induce serotonin release | – | – |
| c1ccc2c(CCC3CCNCC3)c[nH]c2c1 [Indalpine, 3-[2-(4-piperidyl)-ethyl]-indole] | – | 22% | – | 35 nM | – |
| CC(CC1CCNCC1)c1c[nH]c2ccccc12 (stereo not shown) [Example 1, 3-[2-(4-Piperidyl)-1-Methyl-Ethyl]-Indole] | 50 nM | 62% | – | – | non-toxic |
